For this data set, the system named is oxycodone-induced constipation in mice. Kind of data set: Graphite marker propulsion in the intestine, oxycodone-induced constipation in mice. The format is in vivo, Male Crlj: CD1 (ICR) mice. Conditions: 150 minutes after graphite marker. The method, then: Male Crlj: CD1 (ICR) mice were given oral administration of 0.1 mL of graphite maker (INK-30 containing 1% tragacanth gum). Immediately after administration of the graphite marker, the animals were treated orally with oxycodone at 5 mg/kg. The dosing volume of oxycodone was set at 5 mL/kg; the animals of the normal group were given the same volume of 0.5% CMC—Na. Immediately after administration of oxycodone or 0.5% CMC—Na, the animal was treated with Compound 1. The dosing volume of the Compound 1 was set at 5 mL/kg; the animals of the normal and control groups were given the same volume of water for injection. The animals were euthanized by cervical dislocation 150 minutes after administration of graphite marker, and the abdomen was cut open. The distance from the stomach to the cecum, and moving distance of the graphite marker in the intestine were measured. Propulsion rate was calculated by the following formula.
Propulsion rate (%)=(Moving distance of graphite marker/Distance from the stomach to the cecum)×100

Turning to `CCCCC(F)(F)C(=O)CCC1C(O)CC(=O)C1CCCCCCC(=O)O` (stereo not drawn) [Compound 1, 13,14-dihydro-15-keto-16,16-difluoro-PGE1], the “The graphite marker propulsion rate Mean ± S.E.” value (Compound 1 100 μg/kg combined with oxycodone 5 mg/kg oral, n=15, p < 0.05 compared to control group) was 80.5±5.5%. As to `COc1ccc2c3c1O[C@H]1C(=O)CC[C@@]4(O)[C@@H](C2)N(C)CC[C@]314` [oxycodone], the “The graphite marker propulsion rate Mean ± S.E.” value (control group: oxycodone 5 mg/kg oral alone, n=15, p < 0.01 compared to normal group (99.8 ± 0.2)) amounted to 62.3±5.6% and the “The graphite marker propulsion rate Mean ± S.E.” value (control group: oxycodone 5 mg/kg oral alone, n=15, p < 0.01 compared to normal group (99.8 ± 0.2), listed as Oxycodone) was 62.3 ± 5.6 %.
